# Test results published in US20050118601A1, “Enhancer sequence of the 5-aminolevulinic acid synthase gene” (priority 2002, published 2005).
# Where two headings read alike, the source gives them in different places.
# Assays:
# [1] = test system: chicken ALAS1 drug responsive enhancer sequence (ADRES) elements; test: Luciferase reporter gene assay of chicken ALAS1 5'-flanking fragments / ADRES elements in transfected LMH cells; format: cell-based; settings: for ADRES activation in reporter assays: LMH cells, 16 h, PIA 250 μM, glutethimide 500 μM, metyrapone 400 μM, dexamethasone 50 μM, RU-486 10 μM, rifampicin 100 μM, TCPOBOP 10 μM, compared with PB 600 μM
# Experimental: The constructs were transfected together with a transfection-control construct expressing β-galactosidase into LMH cells. Cells were then treated with 600 μM PB for 16 h and luciferase assays were performed on the cell extracts. Relative luciferase levels are standardized against cells transfected with vector containing no insert and expressed as fold induction. Experiments were repeated at least three times and data from a representative experiment tested in triplicate are shown here. Error bars represent standard deviations;
# Three major subclones were generated from the region upstream of the transcriptional start site, including a 3282 bp SmaI fragment and 5056 bp and 7973 bp EcoRI segments (FIG. 1A). The SmaI clone extends from −167 bp to −3449 bp, whereas the EcoRI subfragments span the regions from −2347 bp to −7402 bp and −7403 bp to −15376 bp, respectively. These subfragments were cloned into the pLucMCS modified luciferase vector containing an SV40 promoter as described in Materials and Methods. Drug inducibility was measured in transiently transfected LMH cells treated with 600 μM PB and compared with control values. […]
# The modified enhancers were examined for response to 600 μM PB in luciferase reporter gene assays and the results are presented in FIG. 3.
# Leghorn Male Hepatoma (LMH) cells were obtained from the American Type Culture Collection and cultivated in 10 cm dishes in Williams E medium supplemented with 10% FCS, 1% glutamine (2 mM) and 1% penicillin/streptomycin (50 IU/ml). Dishes coated with 0.1% gelatin were used for routine culture of LMH cells in order to facilitate proper seating of the cells onto the plastic plate surface.
# [2] = test system: ALAS1 mRNA; test: ALAS1 mRNA quantification (Taqman real-time PCR) in LMH cells; format: cell-based, chicken
# Experimental: We next wanted to compare ADRES-mediated ALAS1 induction levels from reporter gene assays with stimulation of transcription in a physiological system. […] In addition, the common CYP3A inducers dexamethasone (50 μM), metyrapone (400 μM), and 10 μM mifepristone (RU-486) were employed for comparison. We were also interested in the effects of […] 5-pregnen-3β-ol-20-one-16α-carbonitrile (PCN) and rifampicin (100 μM) due to their species-specific effects on PXR activation and CYP3A induction. Messenger RNA was reverse transcribed and levels of ALAS1 cDNA were quantified using the Taqman real-time PCR quantification system as described in Materials and Methods. […] This value was chosen to represent 100% induction, against which all other values are compared.
# LMH cells were plated onto 12-well plates, expanded to 70-80% surface density and incubated in serum-free media for 24 h. Cells were then exposed to either drug or vehicle and RNA was isolated with Trizol reagent (Gibco BRL) according to the manufacturer protocol. One μg of total RNA was reverse transcribed with the Moloney murine leukemia virus reverse transcriptase kit (Roche Molecular Biochemicals). PCR was performed using the Taqman PCR core reagent kit (PE Applied Biosystems) and transcript levels quantitated with an ABI Prism 7700 sequence detection system (PE Applied Biosystems). Relative transcript levels were determined using the relative quantitation method measuring the ΔΔCt. The following primers and probes were used in these reactions. […] Transcript levels were measured in separate tubes and GAPDH values were used for normalization of ALAS1 values.
# [3] = biological target: T1, mouse PXR (Mus musculus, UniProt O54915)
# T1 sequence (O54915 1-431): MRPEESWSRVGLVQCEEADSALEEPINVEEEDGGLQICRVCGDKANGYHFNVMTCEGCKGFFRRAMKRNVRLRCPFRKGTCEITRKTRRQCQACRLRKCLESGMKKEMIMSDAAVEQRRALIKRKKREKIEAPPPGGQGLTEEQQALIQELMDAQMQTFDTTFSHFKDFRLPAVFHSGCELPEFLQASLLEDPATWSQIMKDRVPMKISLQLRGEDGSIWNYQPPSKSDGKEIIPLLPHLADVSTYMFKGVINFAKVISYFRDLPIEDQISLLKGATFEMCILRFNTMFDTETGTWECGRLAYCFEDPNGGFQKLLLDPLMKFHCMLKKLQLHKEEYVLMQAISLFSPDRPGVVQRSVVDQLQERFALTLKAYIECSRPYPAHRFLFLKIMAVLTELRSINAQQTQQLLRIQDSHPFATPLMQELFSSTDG
# Experimental: (§1) To test the effects of the mutations on transcriptional activation, transactivations in CV-1 cells with mouse PXR and mouse CAR and their respective inducers PCN and TCPOBOP, were performed (FIG. 14). The inducible DNA constructs were subcloned into the CAT5 reporter vector and tested for their ability to be transactivated by nuclear receptor transcription factors in CV-1 cells. Mouse PXR (A) and mouse CAR (B) coding regions cloned into the pSG5 expression vector were cotransfected along with a vector expressing pSV β-galactosidase as control. Cells were then treated for 16 h with either drugs (A, PCN; B, TCPOBOP) or vehicle control and cell extracts were analyzed for CAT expression normalized against β-galactosidase levels. Experiments were repeated at least three times and error bars represent standard deviations.
# [4] = biological target: T2, mouse CAR (Mus musculus, UniProt O35627); test: Transactivation of 369 bp ADRES by mouse CAR in CV-1 cells (CAT reporter); format: cell-based
# T2 construct: expressed in transfected cells; host or cells: CV-1 cells, pSG5 expression vector
# T2 sequence (O35627 1-358): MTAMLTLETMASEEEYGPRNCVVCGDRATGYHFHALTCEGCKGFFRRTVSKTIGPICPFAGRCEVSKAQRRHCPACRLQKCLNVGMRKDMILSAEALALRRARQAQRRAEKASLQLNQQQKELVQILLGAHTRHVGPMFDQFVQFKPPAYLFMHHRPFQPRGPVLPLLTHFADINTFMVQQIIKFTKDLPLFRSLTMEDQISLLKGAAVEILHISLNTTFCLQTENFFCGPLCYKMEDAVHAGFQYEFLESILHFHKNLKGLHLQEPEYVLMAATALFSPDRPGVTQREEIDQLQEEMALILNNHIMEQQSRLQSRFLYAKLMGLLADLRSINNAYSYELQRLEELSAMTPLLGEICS
# Experimental: as §1
# [5] = test system: mouse 369 bp DRES; test: Luciferase reporter gene assay of mouse ALAS1 fragments / 369 bp DRES in LMH cells; format: cell-based; settings: for induction of the 369 bp DRES, ranking of drugs: metyrapone 500 μM, glutethimide 500 μM, PIA 250 μM
# Experimental: A 175 bp fragment (441 to 615) (Seq. Id. No. 3) was isolated by digesting the 2.6 kb fragment with SacI/XbaI. All fragments were subcloned in the pGL3LUCpro+MCS vector and the resulting constructs tested for inducibility in LMH reporter gene assay (FIG. 6). […] The 369 bp fragment was termed Drug responsive enhancer sequence DRES.
# To compare the 369 bp DRES to other inducible fragments, a series of different drugs was used as inducers: clothrimazole (Clo, 10 μM), dexamethasone (Dex, 50 μM), glutethimide (GE, 500 μM), metyrapone (Met, 500 μM), phenobarbital (PB, 500 μM), PCN (10 μM), propylisopropylacetamide (PIA, 250 μM), rifampicin (Rif, 10 μM), RU486 (10 μM), TCPOBOP (10 μM).
# Data shown is from two independent experiments.
compound,measurement,setting,value
"CC(=O)[C@H]1[C@H](C#N)C[C@H]2[C@@H]3CC=C4C[C@@H](O)CC[C@]4(C)[C@H]3CC[C@@]21C [PCN, 5-pregnene-3β-ol-20-one-16α-carbonitrile]",ADRES activation in reporter assays,[1],minor or no effects
same,effect on ALAS1 mRNA levels,[2],minor or no effects
same,"activation, DR4-1 double mutant",[3],1.9 fold
same,"activation, first DR4-2 single mutant (DR4-2/hs1)",[3],5.8 fold
same,"activation, second DR4-2 single mutant (DR4-2/hs2)",[3],5.3 fold
same,"drug response, both NR binding sites of 369 bp element altered",[3],elimination of PXR-mediated drug response
same,"induction, 369 bp wild type",[3],5.6 fold
same,"induction, DR4-2 double mutant",[3],2.5 fold
same,"induction, first DR4-1 single mutant (DR4-1/hs1)",[3],2.7 fold
same,"induction, second DR4-1 single mutant (DR4-1/hs2)",[3],2.0 fold
"CC#C[C@]1(O)CC[C@H]2[C@@H]3CCC4=CC(=O)CCC4=C3[C@@H](c3ccc(N(C)C)cc3)C[C@@]21C [RU-486, Mifepristone]",ADRES activation in reporter assays,[1],minor or no effects
same,effect on ALAS1 mRNA levels,"[2]; LMH cells, 16 h, PB 600 μM, dexamethasone 50 μM, RU-486 10 μM, rifampicin 100 μM, TCPOBOP 10 μM",minor or no effects
C[C@@]12CCC[C@H]1[C@@H]1CC[C@H]3C[C@@H](O)CC[C@]3(C)[C@H]1CC2 [androstanol],"basal expression exceeding androstanol-treated levels, DR4-2/hs1 single mutant",[4],2.5 fold
same,"basal expression exceeding androstanol-treated levels, DR4-2/hs2 single mutant",[4],1.9 fold
"CCC1(c2ccccc2)CCC(=O)NC1=O (stereo not drawn) [glutethimide, Glutethimide]",ADRES activation in reporter assays,[1],in excess of levels obtained from PB treatment
same,relative response of the 176 bp element,[1]; glutethimide 500 μM vs metyrapone 400 μM,slightly more affinity for glutethimide than metyrapone
same,"induction of the 369 bp DRES, ranking of drugs",[5],strongest inducer
"CC(C)(C(=O)c1cccnc1)c1cccnc1 [metyrapone, 2-methyl-1,2-di-3-pyridyl-propadone]",ADRES activation in reporter assays,[1],in excess of levels obtained from PB treatment
same,relative response of the 167 bp element,[1]; metyrapone 400 μM vs glutethimide 500 μM,stronger response to metyrapone than glutethimide
same,"induction of mouse 175, 280, 321, 328 and 369 bp fragments",[5]; Metyrapone 500 μM,enhanced induction
same,"induction of the 369 bp DRES, ranking of drugs",[5],strongest inducer
